# Source: patent US7670613B2, “Androgen modulators” (Pfizer Inc., priority 2004, dated 2010)
# Where two headings read alike, the source gives them in different places.
# Target: T1, androgen receptor (Homo sapiens, UniProt P10275, Q868H)
# T1 construct: a human breast tumor cell line expressing androgen receptor; endogenous in cells; host or cells: MDA-MB453-MMTV clone 54-19 (only the MMTV-luciferase reporter was transfected)
# T1 sequence (P10275 1-920 Q868H): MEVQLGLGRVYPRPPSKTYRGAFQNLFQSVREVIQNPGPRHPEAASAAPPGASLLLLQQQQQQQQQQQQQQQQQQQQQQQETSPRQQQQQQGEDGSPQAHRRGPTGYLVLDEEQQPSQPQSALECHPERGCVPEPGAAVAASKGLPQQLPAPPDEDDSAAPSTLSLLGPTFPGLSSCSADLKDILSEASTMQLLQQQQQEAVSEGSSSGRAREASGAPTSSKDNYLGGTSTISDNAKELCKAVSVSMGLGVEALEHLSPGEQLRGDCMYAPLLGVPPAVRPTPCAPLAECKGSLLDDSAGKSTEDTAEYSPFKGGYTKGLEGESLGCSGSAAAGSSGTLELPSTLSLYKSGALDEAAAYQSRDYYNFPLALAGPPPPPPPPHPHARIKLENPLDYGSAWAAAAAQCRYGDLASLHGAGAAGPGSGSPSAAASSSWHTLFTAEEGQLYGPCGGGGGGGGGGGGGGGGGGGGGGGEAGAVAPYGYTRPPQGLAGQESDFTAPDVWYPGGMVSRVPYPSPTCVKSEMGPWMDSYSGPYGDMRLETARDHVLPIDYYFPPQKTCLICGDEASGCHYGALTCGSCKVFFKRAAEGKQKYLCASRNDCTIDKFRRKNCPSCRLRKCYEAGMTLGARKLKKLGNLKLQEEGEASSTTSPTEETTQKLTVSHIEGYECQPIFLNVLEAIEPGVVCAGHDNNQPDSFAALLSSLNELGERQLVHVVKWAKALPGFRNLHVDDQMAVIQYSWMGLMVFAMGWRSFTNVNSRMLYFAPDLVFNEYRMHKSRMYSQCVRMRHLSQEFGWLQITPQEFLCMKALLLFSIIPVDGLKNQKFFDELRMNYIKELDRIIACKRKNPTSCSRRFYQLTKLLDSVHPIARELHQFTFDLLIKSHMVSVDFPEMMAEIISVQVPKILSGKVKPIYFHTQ
# Test: AR antagonist cell assay (MDA-MB453-MMTV clone 54-19, luciferase reporter)
# Assay type: cell-based
# Conditions: 100 pM DHT, 17 hr, mean of multiple tests
# Protocol: The compounds ability to antagonize the effects of androgen on the androgen receptor were determined in a whole cell assay as described immediately below.
# Experimental Procedure for AR Antagonist Cell Assay
# This cell line is a stable transfected cell line with MDA-MB453 cell background (a human breast tumor cell line expressing androgen receptor). A MMTV minimal promoter containing ARE was first cloned in front of a firefly luciferase reporter gene. Then the cascade was cloned into transfection vector pUV120puro. Electroporation method was used for transfecting MDA-MB-453 cell. Puromycin resistant stable cell line was selected.
# Cell Culture Media and Reagents:
# Culture medium: DMEM (high glucose, Gibco cat #: 11960-044), 10% FBS, and 1% L-glutamine
# Plating medium: DMEM (phenol red free), 10% charcoal treated HyClone serum, 1% L-glutamine
# Assay medium: DMEM (phenol red free), 1% charcoal treated HyClone serum, 1% L-glutamine, and 1% penicillin/streptomycin
# 3× luciferase buffer: 2% beta-mercaptoethanol, 0.6% ATP, 0.0135% luciferine in cell lysis buffer
# • 1. Cells are maintained in culture medium, splitting cells when they reach 80-90% confluence • 2. To test compounds, 10,000 cells/well are plated to opaque 96 cell culture plate in 100 ul/well plating medium, culture for overnight at 37° C. in cell culture incubator • 3. Carefully remove plating medium, then add 80 ul/well of pre-warmed assay medium, add 10 ul/well testing compound (final concentration at) 1000 nM, 200 nM, 40 nM, 8 nM, 1.6 nM, and 0.32 nM), incubate at 37° C. for 30 minutes • 4. Add 10 ul/well freshly prepared DHT (final concentration at 100 pM) to each well, incubate at 37° C. for 17 hr (overnight) • 5.
# The results are reported as the mean of multiple tests as described below (the numbers of tests are indicated in the footnote). N.D. denotes that the compound was not tested.
# [1] = AR Cell IC50, MDA-MB453-MMTV clone 54-19 cells
Structure (SMILES),IC50 [1],"IC50 (MDA-MB453-MMTV clone 54-19 cells, read-out: AR Cell IC50)"
"N#Cc1ccc(O[C@@H]2CCCC[C@H]2C#N)cc1C(F)(F)F (single isomer, unassigned) [Example 72, (trans)-(−)-4-(2-Cyano-cyclohexyloxy)-2-trifluoromethyl-benzonitrile]",12 nM,–
"N#Cc1ccc(O[C@@H]2CCCCC2C#N)cc1C(F)(F)F (stereo in doubt) [Example 14, -4-(2-Cyano-cyclohexyloxy)-2-trifluoromethyl-benzonitrile]",13 nM,–
"CC1CCCCC1Oc1ccc(C#N)c(C(F)(F)F)c1 (stereo not drawn) [Example 8, 4-(2-Methyl-cyclohexyloxy)-2-trifluoromethyl-benzonitrile]",–,494 nM
